From US20060281791A1, “Methods of increasing proliferation of adult mammalian cardiomyocytes through p38 map kinase inhibition” (CHILDREN'S MEDICAL CENTER CORPORATION, priority 2005, published 2006)

B1: FGF4 (protein, UniProt P08620 31-206, looked up)
Fibroblast growth factor 4: APTAPNGTLEAELERRWESLVALSLARLPVAAQPKEAAVQSGAGDYLLGIKRLRRLYCNVGIGFHLQALPDGRIGGAHADTRDSLLELSPVERGVVSIFGVASRFFVAMSSKGKLYGSPFFTDECTFKEILLPNNYNAYESYKYPGMFIALSKNGKTKKGNRVSPTMKVTHFLPRL
B2: FGF17 (protein, UniProt O60258 23-216, looked up)
Fibroblast growth factor 17: TQGENHPSPNFNQYVRDQGAMTDQLSRRQIREYQLYSRTSGKHVQVTGRRISATAEDGNKFAKLIVETDTFGSRVRIKGAESEKYICMNKRGKLIGKPSGKSKDCVFTEIVLENNYTAFQNARHEGWFMAFTRQGRPRQASRSRQNQREAHFIKRLYQGQLPFPNHAEKQKQFEFVGSAPTRRTKRTRRPQPLT
B3: CT-1 (protein, UniProt Q16619 1-201, looked up)
Cardiotrophin-1: MSRREGSLEDPQTDSSVSLLPHLEAKIRQTHSLAHLLTKYAEQLLQEYVQLQGDPFGLPSFSPPRLPVAGLSAPAPSHAGLPVHERLRLDAAALAALPPLLDAVCRRQAELNPRAPRLLRRLEDAARQARALGAAVEALLAALGAANRGPRAEPPAATASAASATGVFPAKVLGLRVCGLYREWLSRTEGDLGQLLPGGSA
B4: FGF6 (protein, UniProt P10767 38-208, looked up)
Fibroblast growth factor 6: SPAGTRANNTLLDSRGWGTLLSRSRAGLAGEIAGVNWESGYLVGIKRQRRLYCNVGIGFHLQVLPDGRISGTHEENPYSLLEISTVERGVVSLFGVRSALFVAMNSKGRLYATPSFQEECKFRETLLPNNYNAYESDLYQGTYIALSKYGRVKRGSKVSPIMTVTHFLPRI

How the values were obtained:
[1] = test system: neonatal (P2) cardiomyocytes; assay: Induction of DNA synthesis (BrdU incorporation) in neonatal cardiomyocytes; format: cell-based, rat; settings: BrdU labeling period 24 to 72 hours; harvested after 72 hours; optimal concentration of stimulus
Description: Animal experiments were performed in accordance with guidelines of Children's Hospital, Boston and UCLA. Ventricular cardiomyocytes from fetal (E19), 2-day-old (P2) and adult (250-350 g) Wistar rats (Charles River) were isolated as described with minor modifications (Engel et al. 1999; Engel et al. 2003). After digestion of fetal or neonatal hearts (0.14 mg/ml collagenase II (Invitrogen), 0.55 mg/ml pancreatin (Sigma)) cells were cultured in DMEM/F12 (GIBCO) containing 3 mM Na-pyruvate, 0.2% BSA, 0.1 mM ascorbic acid (Sigma), 0.5% Insulin-Transferrin-Selenium (100×), penicillin (100 U/ml), streptomycin (100 μg/ml), and 2 mM L-glutamine (GIBCO). Adult cardiomyocytes were cultured for 1 day in standard medium (DMEM, 25 mM Hepes, 5 mM taurine, 5 mM creatine, 2 mM L-carnitine (Sigma), 20 U/ml insulin (GIBCO), 0.2% BSA, penicillin (100 U/ml), and streptomycin (100 μg/ml)). Cells were stimulated in culture medium without BSA containing 2 mM L-glutamine. Neonatal and adult cardiomyocytes were initially cultured for 48 h in the presence of 20 μM cytosine β-D-arabinofuranoside (araC, Sigma) and 5% horse serum before stimulation to prevent proliferation of non-myocytes. Adult cardiomyocytes were incubated another 3 days with araC during stimulation. Neonatal cardiomyocytes were stimulated every day with growth factors for BrdU and H3P analyses (FGF1 and NRG-1-1β at 50 ng/ml, IL-1β at 100 ng/ml, R&D Systems, all diluted in 0.1% BSA/PBS). SB203580 and LY294002 (Calbiochem) was added every day. Adult cardiomyocytes were stimulated with fresh medium and SB203580 every 3 days.
Staining was performed as described (Supplemental Table S3) (Engel et al. 1999; Engel et al. 2003). Immune complexes were detected with ALEXA 350, ALEXA 488 or ALEXA 594-conjugated secondary antibodies (1:200, Molecular Probes). DNA was visualised with DAPI (4′,6′-diamidino-2-phenylindole, 0.5 μg/ml, Sigma). For BrdU, cells were cultured in 30 μM BrdU, incubated after permeabilization for 90 min in 2N HCl/1% triton X-100 and washed 3 times in PBS.
Eighteen to 40 hearts of 3 different litters were used for quantitative analyses of maximal areas. For immunofluorescence analyses 1,500 fetal or neonatal cardiomyocytes were counted. For adult cardiomyocyte analyses in vitro the following number of cells were counted: 500-2,000 for BrdU or Ki67, 9,000-25,000 for H3P, and 12,000-45,000 for aurora B. For in vivo MKK3bE and p38α knockout experiments 2 different litters were used. We counted 1,500-2,000 cells in each apex, left and right ventricle per heart. For adult experiments we analyzed 2 p38α^Δ/Δ and 2 p38^lox/lox hearts (24 sections each). Statistical significance was determined using Student's t test.
Several growth factors have a limited capacity to induce DNA synthesis in neonatal cardiomyocytes, including FGF1 (Pasumarthi and Field 2002). We screened 45 extracellular factors at two different concentrations for their ability to induce BrdU incorporation in neonatal (P2) cardiomyocytes. […] We confirmed previous studies showing that FGF1, IL-1β, and NRG-1-β1 are potent growth factors for neonatal cardiomyocytes (Supplemental Table S2) (Pasumarthi and Field 2002 Circ Res 90: 1044-54).
Inhibition of p38 activity by SB203580 increased BrdU incorporation 2.8-fold in neonatal cardiomyocytes stimulated with FGF1 (p<0.01). Similar results were obtained after stimulation with IL-1β and NRG-1-β1. Thus, inhibition of p38 activity augments growth factor-mediated DNA synthesis in neonatal cardiomyocytes.

p38 MAP kinase = settings: cited from earlier work
[2] = test system: myocardial infarction in adult rats; assay: Fractional shortening (echocardiography) after myocardial infarction; format: in vivo, rat
Description: The p38 inhibitors were tested for in vivo effect following myocardial infarct. For the evaluation of left ventricular function, transthoracic echocardiogram can be performed on the rats after myocardial infarction 1 day or 14 days right. Rats can be anesthetized with 4-5% isoflurane in an induction chamber. The chest can be shaved, and the rats can be placed in dorsal decubitus position and intubated for continuous ventilation. 1-2% isoflurane can be continuously supplied via a mask. 3 electrodes can be adhered to their paws to record the electrocardiographic tracing simultaneously with the cardiac image identifying the phase of a cardiac cycle.
Echocardiograms can be performed with a commercially available echocardiography system equipped with 7.5 MHz phased-array transducer (Philips-Hewlett-Packard). The transducer can be positioned on the left anterior side of the chest. Longitudinal images of the heart can be obtained, including the left ventricle, atrium, the mitral valve and the aorta, followed by the cross-sectional images from the plane of the base to the left ventricular apical region. M-mode tracings can be obtained at the level below the tip of the mitral valve leaflets at the level of the papillary muscles. Fractional shorting (FS) can be calculated as a measure of systolic function, according to the M-mode tracing from the cross-sectional view: maximal LV end-diastolic diameter (at the time of maximal cavity dimension), minimal LV end-systolic diameter (at the time of maximum anterior motion of the posterior wall), FS (%)={(LVEDD−LVESD)/LVEDD}×100.
To determine whether p38 inhibition/FGF1 stimulation can induce cardiomyocyte proliferation in vivo and whether it has a positive effect on cardiac function after cardiac injury we created myocardial infarctions (MI) in adult rats (250 g) by coronary artery ligation. The p38 inhibitor SB203580 HCl or its vehicle, saline, were injected intraperitoneal every three days for the first month of the study. FGF1 or its carrier BSA was injected mixed with self-assembling peptides once into the infarct border zone immediately after coronary artery ligation. We injecting a total of 80 μl of 400 ng/ml FGF1, given at 3 different injection sites, into 400 mg of infarcted myocardium estimated to deliver a FGF 1 concentration to the cardiomyocytes of approximately 50 to 100 ng/ml. Animals were analyzed 24 hours, 2 weeks, and 3 month after surgery. We performed two blinded and randomized studies using 62 rats for the 2 week and 61 rats for the 3 month experiment, with at least 10 animals in each experimental group. Animals were treated with saline plus BSA (control), SB203580 HCl plus BSA (p38i), saline plus FGF1 (FGF1), or SB203580 HCl plus FGF1 (p38i/FGF1).
Animal experiments were performed in accordance with guidelines of Children's Hospital in Boston and were approved by the Harvard Medical School Standing Committee on Animals. Myocardial infarction (MI) was produced in ˜250 gm male Sprague-Dawley rats (Charles River and Harlan) as described previously (Hsieh et al., 2006). Briefly, rats were anesthetized by pentobarbital and, following tracheal intubation, the hearts were exposed via left thoracotomy. The left coronary artery was identified after pericardiotomy and was ligated by suturing with 6-0 prolene at the location ˜3mm below the left atrial appendix. For the sham operation, suturing was performed without ligation. […]

[3] = cited from earlier work
[4] = test system: LPS-stimulated human peripheral blood monocytes; settings: cited from earlier work
ERK = settings: cited from earlier work
JNK = settings: cited from earlier work

Molecule	% of BrdU positive neonatal cardiomyoctes [1] [%]	further results
CNC[C@H](O)c1cccc(O)c1 [PE]	23.7 ± 3.1	
CCc1nc(-c2ccc(OC)cc2)[nH]c1-c1ccncc1 [SB202474]		p38 MAP kinase inhibition (in words) (p38 MAP kinase): inactive
C[S+]([O-])c1ccc(-c2nc(-c3ccc(F)cc3)c(-c3ccncc3)[nH]2)cc1.Cl (stereo not shown) [SB203580 HCl]		improvement of fractional shortening ([2]; 3 month after infarction): maintained; improvement of fractional shortening ([2]; day 14 after infarction): maintained; water solubility [3]: water insoluble
COc1nccc(-c2c(-c3ccc(F)cc3)ncn2[C@H]2CC[C@H](O)CC2)n1 [SB239063]		p38 MAP kinase inhibition (in words) (p38 MAP kinase): potent; IL-1 and TNF-β production [4]: inhibits; selectivity over ERK (ERK): > 200 fold; selectivity over JNK (JNK): > 200 fold
FGF2	22.2 ± 1.8	
IL-1β	41.3 ± 3.2	
TGFβ1	17.4 ± 2.2	
B1	46.5 ± 3.9	
B2	31.1 ± 1.7	
B3	11.2 ± 1.1	
B4	47.3 ± 3.3	
